This is an account of results in patent US20250288683A1, “TETRAHYDROISOQUINOLINE HETEROBIFUNCTIONAL BCL-XL DEGRADERS” (Treeline Biosciences, Inc., priority 2022, published 2025).

For this assay, the target named is T1, Human BCL-XL protein (N-terminal HiBiT tagged BCL-XL in HT1080 cells) (Homo sapiens, UniProt Q07817).
T1 construct: expressed in transfected cells; host or cells: HT-1080 (ATCC CCL-121), stably transduced with lentivirus pLV-UBC-N-HiBiT-BCL-XL-PGK-puro and selected with puromycin
Description: HiBiT based degradation assay. In kind it is cell-based. The note with it: HT1080 cells expressing N-terminal HiBiT tagged BCL-XL, normalized with DMSO control. The text has this:
HiBiT Based Degradation Assay
Human BCL-XL protein coding open reading frame fused with N-terminal HiBiT coding sequence was synthesized from Integrated DNA Technologies (IDT). Next, N-HiBiT-BCL-XL sequence was cloned into pLV-UBC-PGK-Puro, a lentivirus plasmid purchased from Vectorbuilder, to generate pLV-UBC-N-HiBiT-BCL-XL-PGK-puro. Lentiviral particles were generated from Lenti-X™ 293T cells (Clontech) by co-transfection of pLV-UBC-N-HiBiT-BCL-XL-PGK-puro plasmids and lentiviral packaging plasmid mix (Cellecta). HT-1080 [HT1080](ATCC CCL-121) cells were infected with the lentivirus, and HT1080 cells stably integrated with the lentiviral vectors were established by incubation with 1 μg/mL puromycin (Thermofisher).
HT1080 cells expressing N-terminal HiBiT tagged BCL-XL were dispensed into a 384-well plate pre-spotted with compounds at varying concentrations. Three thousand cells were seeded into each well in 40 μL of RPMI 1640 media. […] After incubation, luminescence was read on a PHERAstar FSX Plate Reader (BMG). BCL-XL degradation at each indicated concentration was normalized with the DMSO control. The BCL-XL degradation curves were plotted using a four-parameter logistic model. For compounds displaying hook effects, the curve fitting was performed using the bottom point of the hook curves (i.e., the point of Ymin) as the bottom plateau to calculate EC50.

The structures appear in SMILES notation.

T1 sequence (Q07817 whole entry): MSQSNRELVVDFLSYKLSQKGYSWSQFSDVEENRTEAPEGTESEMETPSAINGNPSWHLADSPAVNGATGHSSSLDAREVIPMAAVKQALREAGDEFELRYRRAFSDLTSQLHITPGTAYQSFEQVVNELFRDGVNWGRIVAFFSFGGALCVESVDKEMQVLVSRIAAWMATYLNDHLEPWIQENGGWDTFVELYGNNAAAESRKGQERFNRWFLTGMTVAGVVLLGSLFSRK

With `Cc1ncsc1-c1ccc([C@H](C)NC(=O)[C@@H]2C[C@@H](O)CN2C(=O)[C@@H](NC(=O)CCCCCCCCCCCCCn2nc(C)c(-c3ccc(N4CCc5cccc(C(=O)Nc6nc7ccccc7s6)c5C4)nc3C(=O)O)c2C)C(C)(C)C)cc1` [Compound 104a, 6-[8-(1,3-benzothiazol-2-ylcarbamoyl)-3,4-dihydro-1H-isoquinolin-2-yl]-3-[1-[14-[[(1S)-1-[(2S,4R)-4-hydroxy-2-[[(1S)-1-[4-(4-methylthiazol-5-yl)phenyl]ethyl]carbamoyl]pyrrolidine-1-carbonyl]-2,2-dimethyl-propyl]amino]-14-oxo-tetradecyl]-3,5-dimethyl-pyrazol-4-yl]pyridine-2-carboxylic acid], the “Ymin (6 h)” value was “B (50% ≤ Ymin < 70%)”.
Consider `Cc1ncsc1-c1ccc([C@H](C)NC(=O)[C@@H]2C[C@@H](O)CN2C(=O)[C@@H](NC(=O)CCCCCOc2cccc(-c3ccc(N4CCc5cccc(C(=O)Nc6nc7ccccc7s6)c5C4)nc3C(=O)O)c2C)C(C)(C)C)cc1` [Compound 105a, 6-(8-(Benzo[d]thiazol-2-ylcarbamoyl)-3,4-dihydroisoquinolin-2(1H)-yl)-3-(3-((6-(((S)-1-((2S,4R)-4-hydroxy-2-(((S)-1-(4-(4-methylthiazol-5-yl)phenyl)ethyl)carbamoyl)pyrrolidin-1-yl)-3,3-dimethyl-1-oxobutan-2-yl)amino)-6-oxohexyl)oxy)-2-methylphenyl)picolinic acid], for which the “Ymin (6 h)” value is “A (Ymin < 50%)” and the “Ymin (24 h)” value is given as “A (Ymin < 50%)”.
Consider `Cc1ncsc1-c1ccc([C@H](C)NC(=O)[C@@H]2C[C@@H](O)CN2C(=O)[C@@H](NC(=O)CCCCCCOc2cccc(-c3ccc(N4CCc5cccc(C(=O)Nc6nc7ccccc7s6)c5C4)nc3C(=O)O)c2C)C(C)(C)C)cc1` [Compound 106a, 6-(8-(benzo[d]thiazol-2-ylcarbamoyl)-3,4-dihydroisoquinolin-2(1H)-yl)-3-(3-((7-(((S)-1-((2S,4R)-4-hydroxy-2-(((S)-1-(4-(4-methylthiazol-5-yl)phenyl)ethyl)carbamoyl)pyrrolidin-1-yl)-3,3-dimethyl-1-oxobutan-2-yl)amino)-7-oxoheptyl)oxy)-2-methylphenyl)picolinic acid], for which the “Ymin (6 h)” value is reported as “A (Ymin < 50%)” and the “Ymin (24 h)” value is recorded as “A (Ymin < 50%)”.
As to `Cc1ncsc1-c1ccc([C@H](C)NC(=O)[C@@H]2C[C@@H](O)CN2C(=O)[C@@H](NC(=O)CCCCCCCOc2cccc(-c3ccc(N4CCc5cccc(C(=O)Nc6nc7ccccc7s6)c5C4)nc3C(=O)O)c2C)C(C)(C)C)cc1` [Compound 107a, 6-[8-(1,3-benzothiazol-2-ylcarbamoyl)-3,4-dihydro-1H-isoquinolin-2-yl]-3-[3-[8-[[(1S)-1-[(2S,4R)-4-hydroxy-2-[[(1S)-1-[4-(4-methylthiazol-5-yl)phenyl]ethyl]carbamoyl]pyrrolidine-1-carbonyl]-2,2-dimethyl-propyl]amino]-8-oxo-octoxy]-2-methyl-phenyl]pyridine-2-carboxylic acid], the “Ymin (6 h)” value was “B (50% ≤ Ymin < 70%)”.
As for `Cc1ncsc1-c1ccc([C@H](C)NC(=O)[C@@H]2C[C@@H](O)CN2C(=O)[C@@H](NC(=O)CCCCOc2cccc(-c3ccc(N4CCc5cccc(C(=O)Nc6nc7ccccc7s6)c5C4)nc3C(=O)O)c2C)C(C)(C)C)cc1` [Compound 108a, 6-[8-(1,3-benzothiazol-2-ylcarbamoyl)-3,4-dihydro-1H-isoquinolin-2-yl]-3-[3-[5-[[(1S)-1-[(2S,4R)-4-hydroxy-2-[[(1S)-1-[4-(4-methylthiazol-5-yl)phenyl]ethyl]carbamoyl]pyrrolidine-1-carbonyl]-2,2-dimethyl-propyl]amino]-5-oxo-pentoxy]-2-methyl-phenyl]pyridine-2-carboxylic acid], the “Ymin (6 h)” value is given as “A (Ymin < 50%)” and the “Ymin (24 h)” value was “A (Ymin < 50%)”.
For the compound `Cc1ncsc1-c1ccc([C@H](C)NC(=O)[C@@H]2C[C@@H](O)CN2C(=O)[C@@H](NC(=O)CCCCCCCCCNC(=O)c2nc(N3CCc4cccc(C(=O)Nc5nc6ccccc6s5)c4C3)ccc2-c2cnn(Cc3ccccc3)c2C)C(C)(C)C)cc1` [Compound 110a, N-(benzo[d]thiazol-2-yl)-2-(5-(1-benzyl-5-methyl-1H-pyrazol-4-yl)-6-((10-(((S)-1-((2S,4R)-4-hydroxy-2-(((S)-1-(4-(4-methylthiazol-5-yl)phenyl)ethyl)carbamoyl)pyrrolidin-1-yl)-3,3-dimethyl-1-oxobutan-2-yl)amino)-10-oxodecyl)carbamoyl)pyridin-2-yl)-1,2,3,4-tetrahydroisoquinoline-8-carboxamide], the “Ymin (6 h)” value is on record as “A (Ymin < 50%)”.
Still for that read-out and setting: under `Cc1ncsc1-c1ccc([C@H](C)NC(=O)[C@@H]2C[C@@H](O)CN2C(=O)[C@@H](NC(=O)CCCCCCCCCn2nc(C)c(-c3ccc(N4CCc5cccc(C(=O)Nc6nc7ccccc7s6)c5C4)nc3C(=O)O)c2C)C(C)(C)C)cc1` [Compound 111a, 6-[8-(1,3-benzothiazol-2-ylcarbamoyl)-3,4-dihydro-1H-isoquinolin-2-yl]-3-[1-[10-[[(1S)-1-[(2S,4R)-4-hydroxy-2-[[(1S)-1-[4-(4-methylthiazol-5-yl)phenyl]ethyl]carbamoyl]pyrrolidine-1-carbonyl]-2,2-dimethyl-propyl]amino]-10-oxo-decyl]-3,5-dimethyl-pyrazol-4-yl]pyridine-2-carboxylic acid] stands “B (50% ≤ Ymin < 70%)”.
With `Cc1ncsc1-c1ccc([C@H](C)NC(=O)[C@@H]2C[C@@H](O)CN2C(=O)[C@@H](NC(=O)CCc2ccc(Oc3cccc(-c4ccc(N5CCc6cccc(C(=O)Nc7nc8ccccc8s7)c6C5)nc4C(=O)O)c3C)cc2)C(C)(C)C)cc1` [Compound 112a, 6-[8-(1,3-benzothiazol-2-ylcarbamoyl)-3,4-dihydro-1H-isoquinolin-2-yl]-3-[3-[4-[3-[[(1S)-1-[(2S, 4R)-4-hydroxy-2-[[(1S)-1-[4-(4-methylthiazol-5-yl)phenyl]ethyl]carbamoyl]pyrrolidine-1-carbonyl]-2,2-dimethyl-propyl]amino]-3-oxo-propyl]phenoxy]-2-methyl-phenyl]pyridine-2-carboxylic acid], the “Ymin (6 h)” value is “B (50% ≤ Ymin < 70%)” and the “Ymin (24 h)” value is listed as “B (50% ≤ Ymin < 70%)”.
With `Cc1ncsc1-c1ccc([C@H](C)NC(=O)[C@@H]2C[C@@H](O)CN2C(=O)[C@@H](NC(=O)Cc2ccc(Oc3cccc(-c4ccc(N5CCc6cccc(C(=O)Nc7nc8ccccc8s7)c6C5)nc4C(=O)O)c3C)cc2)C(C)(C)C)cc1` [Compound 113a, 6-[8-(1,3-benzothiazol-2-ylcarbamoyl)-3,4-dihydro-1H-isoquinolin-2-yl]-3-[3-[4-[2-[[(1S)-1-[(2S,4R)-4-hydroxy-2-[[(1S)-1-[4-(4-methylthiazol-5-yl)phenyl]ethyl]carbamoyl]pyrrolidine-1-carbonyl]-2,2-dimethyl-propyl]amino]-2-oxo-ethyl]phenoxy]-2-methyl-phenyl]pyridine-2-carboxylic acid], the “Ymin (6 h)” value is “A (Ymin < 50%)” and the “Ymin (24 h)” value is given as “A (Ymin < 50%)”.
As to `Cc1ncsc1-c1ccc([C@H](C)NC(=O)[C@@H]2C[C@@H](O)CN2C(=O)[C@@H](NC(=O)CCc2ccc(COc3cccc(-c4ccc(N5CCc6cccc(C(=O)Nc7nc8ccccc8s7)c6C5)nc4C(=O)O)c3C)cc2)C(C)(C)C)cc1` [Compound 114a, 6-(8-(benzo[d]thiazol-2-ylcarbamoyl)-3,4-dihydroisoquinolin-2(1H)-yl)-3-(3-((4-(3-(((S)-1-((2S,4R)-4-hydroxy-2-(((S)-1-(4-(4-methylthiazol-5-yl)phenyl)ethyl)carbamoyl)pyrrolidin-1-yl)-3,3-dimethyl-1-oxobutan-2-yl)amino)-3-oxopropyl)benzyl)oxy)-2-methylphenyl)picolinic acid], the “Ymin (6 h)” value was “B (50% ≤ Ymin < 70%)” and the “Ymin (24 h)” value was “A (Ymin < 50%)”.
For `Cc1ncsc1-c1ccc([C@H](C)NC(=O)[C@@H]2C[C@@H](O)CN2C(=O)[C@@H](NC(=O)CCCc2ccc(Oc3cccc(-c4ccc(N5CCc6cccc(C(=O)Nc7nc8ccccc8s7)c6C5)nc4C(=O)O)c3C)cc2)C(C)(C)C)cc1` [Compound 115a, 6-(8-(benzo[d]thiazol-2-ylcarbamoyl)-3,4-dihydroisoquinolin-2 (1H)-yl)-3-(3-(4-(4-(((S)-1-((2S,4R)-4-hydroxy-2-(((S)-1-(4-(4-methylthiazol-5-yl)phenyl)ethyl)carbamoyl)pyrrolidin-1-yl)-3,3-dimethyl-1-oxobutan-2-yl)amino)-4-oxobutyl)phenoxy)-2-methylphenyl)picolinic acid], the “Ymin (6 h)” value is reported as “A (Ymin < 50%)” and the “Ymin (24 h)” value is “A (Ymin < 50%)”.
